# Source: patent US8772227B2, “Glucosamine pro-drug” (priority 2011, dated 2014)
# What was measured:
# [1] = Absorption through everted rat gut; assay type: in vitro ADME
# Protocol: (§1) Pro-drugs were incubated for 2 h with homogenized rat stomach or intestine while the pH is kept at 1.0 or 7.4, respectively. Samples are taken at 30 min interval for the analysis of the pro-drug and GlcN. This procedure was used as a prerequisite to further tests described in Examples 6, 7 and 8. A compound with low stability under this condition was decided to be unsuitable for further test. […] Everted rat gut sacks are immersed in 80 μg/mL (GlcN equivalent) of GlucN HCl or GV-GluN HCl solution. The appearance of glucosamine each compound inside the sack (serosal) was measured. […] Gly-Val-COO-GlcN is GV-GlycN.
# A mid line incision was made in the anesthetised rat abdomen, the intestine was exposed and five 10 cm segments of the jejunum are cut. In ice cold Krebs Henseleit buffer, the intestinal content are removed and each segment are everted over a glass rod, tied from one side, a polyethylene tube is inserted into the other side and tied. The segments are filled with buffer and incubated in a perfusion apparatus containing oxygenated Krebs Henseleit buffer at 37° C. The test compound was added to the mucosal (outer surface of the everted gut) and serial samples were collected from both sides. The percent of the movement from outside (mucosal) to inside (serosal) was measured and compared (FIG. 4). […]
# [2] = Bioavailability in the rat (plasma GlcN AUC after oral dose); assay type: in vivo
# Protocol: Prodrugs or GlcN HCl or sulphate were administered to rats in single oral doses equivalent to a fix amount of GlcN. Plasma GlcN concentrations were measured using HPLC in serial sample collected over a period of time. The areas under plasma-concentration-time curves (AUC or relative bioavailability) were calculated and compared (FIGS. 5 and 5a).
# [3] = tested on: adjuvant arthritis caused by Mycobacterium butyricum; test: Efficacy against adjuvant arthritis; assay type: in vivo; details: for preventing effect on emergence of adjuvant arthritis: daily doses from day 0, GlcN HCl 90 mg, GV-GlcN 30 mg glucosamine equivalent, FIG. 6; for paw thickness after treatment of established adjuvant arthritis: four days of daily doses from day 14, GlcN 90 mg/kg, GV-GlcN 30 mg/kg GlcN equivalent, FIG. 7
# Protocol: Under anesthesia, rats were injected with 0.2 ml of 50 mg/ml Mycobacterium butyricum suspended in squalene in the base of the tail (day 0). Their paw thickness was measure daily. Within 12-14 days significant increases in paw thickness were noticed, indicative of the emergence if adjuvant arthritis. Repeated daily doses of drugs were administered either right after the time of Mycobacterium injection (to prevent emergence of arthritis) or after the appearance of arthritis (to treat arthritis). Animals were monitored for their arthritis status during the entire length of the experiment.
# On day zero, Mycobacterium butyricum is injected to all rats along with daily doses of glucosamine, GV-GlnN or placebo. The placebo group develops severe AA but not the ones that received either treatment. Upon discontinuation of the treatments, AA emerges (FIG. 6).
# [4] = Stability in the gut (incubation with homogenized rat stomach or intestine); assay type: in vitro ADME; details: incubated with homogenized rat stomach (pH 1.0) or intestine (pH 7.4); read-out: t1/2 of decomposition in the presence of rat gut
# Protocol: as §1
# [5] = Chemical stability (60° C. oven for 48 h); assay type: physicochemical; details: 60° C. for 48 h; <96% considered unstable
# Protocol: Compounds were transferred into transparent glass vials and placed in 60° C. oven for 48 h. Compound with <96% stability are considered unstable.
# [6] = oral administration, reference (23); cited from earlier work
smiles,measurement,setting,value
"CC(C)C(NC(=O)CN)C(=O)OCC1OC(O)C(N)C(O)C1O (stereo not shown) [GV-GlcN, (5-amino-3,4,6-trihydroxyoxan-2-yl)methyl 2-(2-aminoacetamido)-3-methylbutanoate]",stability after exposure to the gut (no conversion into glucosamine),"[1]; 60 minutes exposure, FIG. 4",greater than 96%
same,transport across everted rat gut,[1]; mucosal to serosal,~80%
same,area under the plasma glucosamine concentration-time curve compared with GlcN,"[2]; 110 mg/kg (GlcN equivalent), FIG. 5A, n=3-5/group",significantly greater than GlcN
same,mean AUC (bioavailability) of GlcN in rat plasma compared with GlcN HCl,"[2]; oral, 110 mg GlcN equivalent, FIG. 5, AUC(0-4)",significantly and substantially greater
same,preventing effect on emergence of adjuvant arthritis,[3],prevent the disease
same,paw thickness after treatment of established adjuvant arthritis,[3],significantly reduce the paw thickness
same,paw thickness after treatment of established adjuvant arthritis,[3]; listed as GV-GluN,Significant (p>0.05) reduced paw thickness
same,half-life,[4],> 16 h
same,physicochemical stability (percent stable),[5],> 96%
"N[C@H]1C(O)O[C@H](CO)[C@@H](O)[C@@H]1O (stereo partly shown) [GlcN, Glucosamine]",preventing effect on emergence of adjuvant arthritis,[3],prevent the disease
same,paw thickness after treatment of established adjuvant arthritis,[3],significantly reduce the paw thickness
same,paw thickness after treatment of established adjuvant arthritis,[3]; listed as GlcN HCl,Significant (p>0.05) reduced paw thickness
N[C@H]1C(O)O[C@H](CO)[C@@H](O)[C@@H]1O.N[C@H]1C(O)O[C@H](CO)[C@@H](O)[C@@H]1O.O=S(=O)(O)O (stereo partly shown) [GlcN sulfate],AUC of GlcN after oral HCl versus sulphate salt,[6],equal AUC values
